This note sets out measurements from patent EP0347459A1, “CEPHALOSPORIN COMPOUNDS OR THEIR SALTS, PROCESS FOR THEIR PREPARATION, AND PHARMACEUTICAL COMPOSITIONS” (TEIJIN LIMITED, priority 1987, dated 1988).

Common to all, as to assay type: cell-based
One assay deals with P.aeruginosa N-3. Put plainly: MIC values of 10 kinds of Pseudomonas aeruginosa. The settings on record: N3, 16 h, P.aeruginosa N-3 (Table II), read-out: MIC values. The procedure:
(§1) An in vitro antibacterial activity was measured by an agar disc dilution method.
(§2) Varied test bacteria were cultivated overnight in triptophane-soybroth. A Mueller Hinton agar containing the compound of this invention in varied concentrations was streaked with one platinum loopful of each of the bacteria (number of living cells 10^6/ml).
(§3) MIC values of 10 kinds of Pseudomonas aeruginosa were measured for Compound III, Comparative Example B and CAZ.

In another assay the test system is P.aeruginosa ATCC27318. Put plainly: MIC values of 10 kinds of Pseudomonas aeruginosa. The following applies: 16 h, P.aeruginosa ATCC27318 (Table II), read-out: MIC values. The procedure:
as §1, §2, §3

The next assay deals with P.aeruginosa 0-11. Put plainly: MIC values of 10 kinds of Pseudomonas aeruginosa. The settings on record: Pseudomonas aeruginosa, 011, 16 h; P.aeruginosa 0-11 (Table II); read-out: MIC values. The procedure: as §1, §2, §3
A further assay relates to P.aeruginosa ATCC27577. Put plainly: MIC values of 10 kinds of Pseudomonas aeruginosa. The following applies: 16 h, P.aeruginosa ATCC27577 (Table II), read-out: MIC values. The procedure:
as §1, §2, §3

Another assay deals with P.aeruginosa 64. Put plainly: MIC values of 10 kinds of Pseudomonas aeruginosa. The settings on record: Pseudomonas aeruginosa, 16 h; P.aeruginosa 64 (Table II); read-out: MIC values. The procedure: as §1, §2, §3
The subject of a further assay is P.aeruginosa Tid53. Put plainly: MIC values of 10 kinds of Pseudomonas aeruginosa. The following applies: 16 h, P.aeruginosa Tid53 (Table II), read-out: MIC values. The procedure:
as §1, §2, §3

The subject of the next assay is P.aeruginosa NO. 97. Put plainly: MIC values of 10 kinds of Pseudomonas aeruginosa. The settings on record: 16 h, P.aeruginosa NO. 97 (Table II), read-out: MIC values. The procedure: as §1, §2, §3
The test system of the next assay is P.aeruginosa 88. Put plainly: MIC values of 10 kinds of Pseudomonas aeruginosa. The settings on record: Pseudomonas aeruginosa, 16 h; P.aeruginosa 88 (Table II); read-out: MIC values. The procedure: as §1, §2, §3
The next assay deals with P.aeruginosa N-2. Put plainly: MIC values of 10 kinds of Pseudomonas aeruginosa. The settings on record: N2, 16 h, P.aeruginosa N-2 (Table II), read-out: MIC values. The procedure: as §1, §2, §3
For the next assay, the system named is P.aeruginosa N-26. Put plainly: MIC values of 10 kinds of Pseudomonas aeruginosa. The following applies: N26, 16 h, P.aeruginosa N-26 (Table II), read-out: MIC values. The procedure: as §1, §2, §3
In the next assay the test system is P.vulgalis OX-11. Put plainly: In vitro antibacterial activity, agar disc dilution method. The settings on record: P.vulgalis OX-11; Mueller Hinton agar, 10^6/ml, 37°C for 16 hours; read-out: minimum growth inhibitory concentration (MIC). The procedure: as §1, §2
A further assay concerns P.aeruginosa NCTC1049. The assay is described as above. The settings on record: Pseudomonas aeruginosa; P.aeruginosa NCTC1049; Mueller Hinton agar, 10^6/ml, 37°C for 16 hours; read-out: minimum growth inhibitory concentration (MIC). The procedure: as §1, §2
The subject of the next assay is P.aeruginosa IFO3445. The description is as above. The settings on record: Pseudomonas aeruginosa; P.aeruginosa IFO3445; Mueller Hinton agar, 10^6/ml, 37°C for 16 hours; read-out: minimum growth inhibitory concentration (MIC). The procedure:
as §1, §2

The subject of a further assay is E.cloacae 963. The assay is described as above. The following applies: Enterobacter cloacae; E.cloacae 963; Mueller Hinton agar, 10^6/ml, 37°C for 16 hours; read-out: minimum growth inhibitory concentration (MIC). The procedure:
as §1, §2

The next assay concerns S.typhi 901. The description is as above. The settings on record: Salmonella enterica, 16 h, read-out: minimum growth inhibitory concentration (MIC). The procedure: as §1, §2
For another assay, the system named is S.marcescens IAM1184. The assay is described as above. The settings on record: Serratia marcescens; S.marcescens IAM1184; Mueller Hinton agar, 10^6/ml, 37°C for 16 hours; read-out: minimum growth inhibitory concentration (MIC). The procedure:
as §1, §2

The test system of the next assay is M.luteus ATCC9341. The description is as above. The following applies: Micrococcus luteus; M.luteus ATCC9341; Mueller Hinton agar, 10^6/ml, 37°C for 16 hours; read-out: minimum growth inhibitory concentration (MIC). The procedure:
as §1, §2

The next assay has as its system S.enteritidis G14. The assay is described as above. The following applies: Salmonella enterica; S.enteritidis G14; Mueller Hinton agar, 10^6/ml, 37°C for 16 hours; read-out: minimum growth inhibitory concentration (MIC). The procedure: as §1, §2
The test system of another assay is S.pyogenes Cook. The description is as above. The following applies: Streptococcus pyogenes; S.pyogenes Cook; Mueller Hinton agar, 10^6/ml, 37°C for 16 hours; read-out: minimum growth inhibitory concentration (MIC). The procedure: as §1, §2
A further assay concerns S. aureus Terajima. The description is as above. The following applies: Staphylococcus aureus; S. aureus Terajima; Mueller Hinton agar, 10^6/ml, 37°C for 16 hours; read-out: minimum growth inhibitory concentration (MIC). The procedure: as §1, §2
The next assay relates to P.aeruginosa PAD1. The assay is described as above. The following applies: Pseudomonas aeruginosa; P.aeruginosa PAD1; Mueller Hinton agar, 10^6/ml, 37°C for 16 hours; read-out: minimum growth inhibitory concentration (MIC). The procedure: as §1, §2
The subject of another assay is P.morganii IFO3445. The description is as above. The following applies: Morganella morganii; P.morganii IFO3445; Mueller Hinton agar, 10^6/ml, 37°C for 16 hours; read-out: minimum growth inhibitory concentration (MIC). The procedure: as §1, §2
Another assay concerns S.aureus 209p NIHJ JC1. The assay is described as above. The settings on record: Staphylococcus aureus; S.aureus 209p NIHJ JC1; Mueller Hinton agar, 10^6/ml, 37°C for 16 hours; read-out: minimum growth inhibitory concentration (MIC). The procedure:
as §1, §2

The subject of another assay is K.pneumoniae PCI602. The assay is described as above. The following applies: Klebsiella pneumoniae; K.pneumoniae PCI602; Mueller Hinton agar, 10^6/ml, 37°C for 16 hours; read-out: minimum growth inhibitory concentration (MIC). The procedure: as §1, §2

SMILES strings stand for the structures. In brackets after ≈: the same amount, converted by molar mass.

As for `CC(C)(ON=C(C(=O)NC1C(=O)N2C(C(=O)[O-])=C(C[n+]3ccc4cc(O)c(O)cc4c3)CSC12)c1nsc(N)n1)C(=O)O` [Compound III, (6R,7R)-7-[(Z)-2-(5-amino-1,2,4-thiadiazol-3-yl)-2-(2-carboxypropyl-2-yloxyimino)acetamide]-3-(6,7-dihydroxy-2-isoquinolinium)methyl-3-ce phem-4-carboxylate], the MIC in the assay with P.aeruginosa N-3 was 0.0125 µg/mL (≈ 0.0199 µM); in the assay with P.aeruginosa ATCC27318, 0.0125 µg/mL (≈ 0.0199 µM); with P.aeruginosa 0-11, 0.005 µg/mL (≈ 0.00794 µM); in the assay with P.aeruginosa ATCC27577, 0.005 µg/mL (≈ 0.00794 µM); in the assay on P.aeruginosa 64, 0.0125 µg/mL (≈ 0.0199 µM); in the assay with P.aeruginosa Tid53, 0.005 µg/mL (≈ 0.00794 µM). Besides, the MIC with P.aeruginosa NO. 97 was determined as 0.005 µg/mL (≈ 0.00794 µM); in the assay on P.aeruginosa 88, 0.0125 µg/mL (≈ 0.0199 µM); in the assay with P.aeruginosa N-2, 0.025 µg/mL (≈ 0.0397 µM); in the assay on P.aeruginosa N-26, 0.0125 µg/mL (≈ 0.0199 µM); with P.vulgalis OX-11 it was 0.005 µg/mL (≈ 0.00794 µM); in the assay with P.aeruginosa NCTC1049 it was 0.005 µg/mL (≈ 0.00794 µM). In addition, the MIC amounted to 0.0125 µg/mL (≈ 0.0199 µM) in the assay on P.aeruginosa IFO3445; 0.005 µg/mL (≈ 0.00794 µM) with E.cloacae 963; 0.005 µg/mL (≈ 0.00794 µM) in the assay on S.typhi 901; 0.005 µg/mL (≈ 0.00794 µM) in the assay with S.marcescens IAM1184; 3.1 µg/mL (≈ 4.92 µM) in the assay with M.luteus ATCC9341; 0.005 µg/mL (≈ 0.00794 µM) in the assay on S.enteritidis G14. For the same compound, the MIC is 1.6 µg/mL (≈ 2.54 µM) in the assay with S.pyogenes Cook; 3.1 µg/mL (≈ 4.92 µM) in the assay on S. aureus Terajima; 0.0125 µg/mL (≈ 0.0199 µM) in the assay with P.aeruginosa PAD1; 0.005 µg/mL (≈ 0.00794 µM) in the assay on P.morganii IFO3445; 12.5 µg/mL (≈ 19.9 µM) in the assay on S.aureus 209p NIHJ JC1; 0.005 µg/mL (≈ 0.00794 µM) in the assay with K.pneumoniae PCI602.
On to `CC(C)(ON=C(C(=O)NC1C(=O)N2C(C(=O)[O-])=C(C[n+]3ccc4cc(O)c(O)cc4c3)CSC12)c1csc(N)n1)C(=O)O` [Comparative Compound B, (6R,7R)-7-[(Z)-2-(2-amino-l,3-thiazol-4-yl)-2-(2-carboxypropyl-2-yloxyimino)acetamide]-3-(6,7-dihydroxy-2-isoquinolinium)methyl-3-cephem-4-carboxylate, reference compound], for which the MIC in the assay with P.aeruginosa N-3 stood at 0.05 µg/mL (≈ 0.0795 µM); with P.aeruginosa ATCC27318 it was 0.05 µg/mL (≈ 0.0795 µM); with P.aeruginosa 0-11 it was 0.05 µg/mL (≈ 0.0795 µM); in the assay with P.aeruginosa ATCC27577, 0.005 µg/mL (≈ 0.00795 µM); in the assay with P.aeruginosa 64, 0.05 µg/mL (≈ 0.0795 µM); in the assay on P.aeruginosa Tid53, 0.05 µg/mL (≈ 0.0795 µM). The MIC stood at 0.025 µg/mL (≈ 0.0398 µM) in the assay with P.aeruginosa NO. 97; 0.025 µg/mL (≈ 0.0398 µM) with P.aeruginosa 88; 0.05 µg/mL (≈ 0.0795 µM) in the assay with P.aeruginosa N-2; 0.1 µg/mL (≈ 0.159 µM) in the assay on P.aeruginosa N-26; 0.005 µg/mL (≈ 0.00795 µM) with P.vulgalis OX-11; 0.0125 µg/mL (≈ 0.0199 µM) with P.aeruginosa NCTC1049. Moreover, the MIC was 0.025 µg/mL (≈ 0.0398 µM) in the assay on P.aeruginosa IFO3445; 0.005 µg/mL (≈ 0.00795 µM) in the assay on E.cloacae 963; 0.005 µg/mL (≈ 0.00795 µM) in the assay with S.typhi 901; 0.005 µg/mL (≈ 0.00795 µM) in the assay with S.marcescens IAM1184; 3.1 µg/mL (≈ 4.93 µM) with M.luteus ATCC9341; 0.005 µg/mL (≈ 0.00795 µM) with S.enteritidis G14. Besides, the MIC with S.pyogenes Cook worked out at 1.6 µg/mL (≈ 2.55 µM); with S. aureus Terajima it was 3.1 µg/mL (≈ 4.93 µM); in the assay with P.aeruginosa PAD1, 0.025 µg/mL (≈ 0.0398 µM); in the assay with P.morganii IFO3445, 0.005 µg/mL (≈ 0.00795 µM); in the assay on S.aureus 209p NIHJ JC1, 12.5 µg/mL (≈ 19.9 µM); in the assay with K.pneumoniae PCI602 it was 0.005 µg/mL (≈ 0.00795 µM).
